This note sets out measurements from patent EP1595536A1, “PHARMACEUTICALS COMPRISING SHIKONINS AS ACTIVE CONSTITUENT” (Beijing JBC Chinese Traditional Medicine Science and …, priority 2003, dated 2004).

A word on the MIC: it is the least concentration at which growth counts as inhibited. The term MIC90 denotes an inhibitory concentration at the 90% level, which refers to growth in some studies and to a panel of isolates in others. Lower therefore signals greater potency.

The test system of series [1] is bacteroides fragilis. The series can be described thus: Drug sensitivity test (MIC).
Series [2] has as its system Staphylococcus epidermidis. Kind of series: Comparative MIC experiment, Zicao extract vs Shikonin compounds.
For series [3], the system named is Gram-positive staphylococcus aureus. The series can be described thus: Drug sensitivity test (MIC).
Series [4] concerns mycoplasma pneumoniae. Kind of series: Bacteriostatic effect on mycoplasma.
Series [5] concerns aspergillus fumigatus, cryptococcus and red trichophyton. Kind of series: In vitro antifungal test. The class given is cell-based.
In series [6] the test system is candida and cryptococcus. Kind of series: In vitro antifungal test. The class given is cell-based.
The subject of series [7] is pneumobacillus. The series can be described thus: Drug sensitivity test (MIC).
For series [8], the system named is dermatophyte. The series can be described thus: In vitro antifungal test. Type of series: cell-based.
Series [9] concerns DHBV. The series can be described thus: Virus restraint in DHBV-infected duck. The class given is in vivo. As to conditions: oral, 100mg/kg twice a day, 10 days.
In series [10] the test system is Serratia marcescens. Kind of series: Comparative MIC experiment, Zicao extract vs Shikonin compounds.
The subject of series [11] is Ascitic tyre liver cancer. The series can be described thus: Animal test of tumor restraint. Type of series: in vivo.
Series [12] has as its system Bacteroid. Kind of series: Comparative MIC experiment, Zicao extract vs Shikonin compounds. Type of series: cell-based.
The subject of series [13] is Pseudallescheria boydii. The series can be described thus: In vitro antifungal test. As to conditions: Scedosporium boydii. The class given is cell-based.
Series [14] relates to S180. Kind of series: Animal test of tumor restraint. The class given is in vivo.
In series [15] the test system is Lewis lung cancer. The series can be described thus: Animal test of tumor restraint. The class given is in vivo.
The test system of series [16] is Helicobacter pylori. Kind of series: Drug sensitivity test (MIC).
In series [17] the test system is Candida albicans. The series can be described thus: Comparative MIC experiment, Zicao extract vs Shikonin compounds.
For series [18], the system named is stenotrophomonas bacilli. The series can be described thus: Drug sensitivity test (MIC).
Series [19] concerns C.krusei. Kind of series: In vitro antifungal test. Type of series: cell-based. As to conditions: Pichia kudriavzevii.
For series [20], the system named is cryptococcus neoformans. Kind of series: In vitro antifungal test. The class given is cell-based.
Series [21] has as its system red trichophyton. Kind of series: In vitro antifungal test. Type of series: cell-based.
In series [22] the test system is W256. The series can be described thus: Animal test of tumor restraint. The class given is in vivo.
Series [23] deals with L1210. Kind of series: Animal test of tumor restraint. Type of series: in vivo.
Where [24] appears, read: bacteroid, especially bacteroides fragilis.
Where [25] appears, read: Gram-positive staphylococcus aureus.
Setting [26] is: stenotrophomonas bacilli, stated as especially effective, compared with berberine.

Each structure is given as a SMILES string. Converted amounts (≈) assume the structure as drawn. Read-outs that look alike come from different tables or passages of the source.

With `CC(C)=CCC(OC(=O)C=C(C)C)C1=CC(=O)c2c(O)ccc(O)c2C1=O` (stereo not drawn), the MIC in series [1] (Bacteroides fragilis) was 0.391 to 6.25 µg/mL (≈ 1.06 to 16.9 µM); in series [2] it was 0.391 µg/mL (≈ 1.06 µM); in series [3] (Staphylococcus aureus) it was 0.391 to 12.5 µg/mL (≈ 1.06 to 33.7 µM); in series [4] (Mycoplasma), 2 µg/mL (≈ 5.4 µM); in series [5] it was 3.06 to 250 µg/mL (≈ 8.27 to 675 µM); in series [6] it was 2.08 to 33.3 µg/mL (≈ 5.62 to 89.9 µM). Moreover, the MIC in series [7] was 0.391 to 6.25 µg/mL (≈ 1.06 to 16.9 µM); in series [7] (some bacterial strains), 12.5 to 50 µg/mL (≈ 33.7 to 135 µM); in series [8] it was 4.16 to 8.32 µg/mL (≈ 11.2 to 22.5 µM); in series [10], 0.781 µg/mL (≈ 2.11 µM); in series [12] it was 0.391 µg/mL (≈ 1.06 µM); in [13], 4.16 to 8.32 µg/mL (≈ 11.2 to 22.5 µM). The MIC is 0.391 to 0.781 µg/mL (≈ 1.06 to 2.11 µM) in series [16], 3.91 µg/mL (≈ 10.5 µM) in series [17], 0.391 to 0.781 µg/mL (≈ 1.06 to 2.11 µM) in series [18] (Stenotrophomonas) and 8.32 to 16.6 µg/mL (≈ 22.5 to 44.8 µM) in series [19]. For the same compound, the MIC90 in series [6] turned out to be 33.3 µg/mL (≈ 89.9 µM); in series [8], 4.16 µg/mL (≈ 11.2 µM). Also, the toxic reaction entry in series [9] was “without toxic reaction”. In addition, the Life prolonged rate in series [11] was determined as 113.4%. Further, the Tumor inhibitory rate was determined as 9.63% in series [14] and 42.8% in [15].
For `CC(=O)O[C@H](CC=C(C)C)C1=CC(=O)c2c(O)ccc(O)c2C1=O` [Acetylshikonin], the MIC was 3.906 ¦Ìg/ml in [20]; 0.391-6.25 ì g/ml in series [1] (setting [24]); 0.391-12.5 ì g/ml in series [3] (setting [25]); 7.819 ì g/ml in series [4] (mycoplasma pneumoniae); 0.391-6.25 ì g/ml in series [7]; 12.5-50 ì g/ml in series [7] (some bacterial strains). The MIC in series [21] was 0.9062- 62.5 ¦Ìg/ml; in [16], 0.391 - 0.781 ì g/ml; in [18] (setting [26]) it was 0.391-0.781 ì g/ml. The Tumor inhibitory rate was determined as 77% in series [22], 47.8% in [11], 35.7% in series [14] and 52.6% in series [15]. For the same compound, the Life prolonged rate is listed as 112.6% in series [11] and 128% in [23].
For `CC(C)=CC[C@@H](O)C1=CC(=O)c2c(O)ccc(O)c2C1=O` [Shikonin], the MIC in [1] (setting [24]) is reported as 0.391-6.25 ì g/ml; in series [3] (setting [25]), 0.391-12.5 ì g/ml; in series [4] (mycoplasma pneumoniae), 3.751 ì g/ml; in series [7], 0.391-6.25 ì g/ml; in [7] (some bacterial strains), 12.5-50 ì g/ml; in series [16] it was 0.391 - 0.781 ì g/ml. Moreover, the MIC in [18] (setting [26]) was 0.391-0.781 ì g/ml. The Life prolonged rate in series [11] amounted to 130.8%.
In series [18] (Stenotrophomonas), `COc1ccc2cc3[n+](cc2c1OC)CCc1cc2c(cc1-3)OCO2` [berberine, reference compound] registered a minimum inhibitory concentration (MIC) of 8 to 32 µg/mL.
Consider `OC(Cn1cncn1)(Cn1cncn1)c1ccc(F)cc1F` [fluconazole, reference compound], for which, in [8], the MIC was 32 to 64 µg/mL (≈ 104 to 209 µM) and the MIC90 came to 64 µg/mL (≈ 209 µM).
